Reference: PubChem BioAssay AID1963964 (Molecular Pharmacology Branch, DTP, NCI, 2024)
Where “and” joins values, the source holds several entries; their conditions need not be identical. Equal values may be shown once.

System: 997726-040-R-J2-PDC tumor spheroids, viability
Assay: Anticancer human tumor 997726-040-R-J2-PDC patient-derived squamous cell lung carcinoma cell line growth inhibition [PI3K]
Conditions: spheroids with HUVEC and MSC; for viability, T/C: stronger effect = lower value
Description: Combinatorial screen of targeted agents with the PI3K inhibitors inavolisib, alpelisib, duvelisib, and copanlisib in multi-cell type tumor spheroids
A high-throughput screen of multi-cell type tumor spheroids was designed to identify active combinations of targeted small molecules and PI3K pathway inhibitors. Complex spheroids include a stromal component modeled by human endothelial cells (HUVEC) and fibroblasts modeled by human mesenchymal stem cells (MSCs). The concentration ranges selected for each drug and investigational agent were based upon clinically achievable concentrations if the clinical Cmax of the agent was known.
Compounds. The drugs and investigational agents: inavolisib (NSC800729), alpelisib (NSC765974), duvelisib (NSC772469), copanlisib (NSC816437), ipatasertib (NSC767898), afuresertib (NSC778305), talazoparib (NSC767125), sapanisertib (NSC764658), selumetinib (NSC741078), tovorafenib (DAY101, NSC766906), vemurafenib (NSC761431), ravoxertinib (NSC781343), sotorasib (NSC818433), MRTX1133 (NSC 836407), abemaciclib (NSC 768073), palbociclib (NSC758247), venetoclax (NSC 766270), SY5609 (NSC837396), enzalutamide (NSC755605), and darolutamide (NSC825331), were obtained from the National Cancer Institute (NCI) Developmental Therapeutics Program Chemical Repository. The FDA-approved anticancer drug set is available from the NCI Developmental Therapeutics Program. […] The stock solutions were prepared in dimethyl sulfoxide (DMSO, Sigma-Aldrich, St. Louis, MO, cat. D2650) at 800-fold the tested concentration and stored at -70 degrees C prior to their use. All drugs and investigational agents were tested over a range starting from a high concentration at or near the clinical Cmax and decreasing in half-log increments. If the clinical Cmax for an agent had not been determined, the highest concentration tested was 10 microM.
Cell Culture. All cells were maintained in an incubator at 37 degrees C and 5% CO2 with 95% humidity. The PDC lines were cultured according to standard operating procedures established by the NCI PDMR (https://pdmr.cancer.gov/sops/default.htm). All PDCs were thawed and cultured in Matrigel-coated flasks prepared with a working solution of 1X Ham's F-12 nutrient mix, without supplementation (Invitrogen, Waltham, MA, cat. 11765054), 100 U/mL penicillin-streptomycin (Invitrogen, cat. 15140122), and 2.5% Matrigel (Corning Inc., Corning, NY, cat. 354248) for the first three passages. The 354836-022-R-J1-PDC, 475296-252-R-J1-PDC, and 997726-040-R-J2-PDC lines were cultured in 6A media, which includes advanced DMEM/F-12 (Thermo Fisher Scientific, cat. 12634028), 10 mM HEPES (Thermo Fisher Scientific, cat. 15630080), 1X GlutaMAX supplement (Thermo Fisher Scientific, cat. 35050061), 0.1 mg/mL primocin (InvivoGen, San Diego, CA, cat. ant-pm-2), 10% defined fetal bovine serum, heat inactivated (HyClone Laboratories Inc., Logan, UT, cat. SH30070.03HI), 50% L-WRN conditioned media (ATCC, cat. CRL-3276), 1.25 mM N-Acetyl-L-cysteine (Sigma-Aldrich, cat. A9165), 10 mM nicotinamide (Sigma-Aldrich, cat. N0636), 1X B-27 supplement (Thermo Fisher Scientific, cat. 17504044), 1X N-2 supplement (Thermo Fisher Scientific, cat. 17502048), and 10 microM Y-27632 dihydrochloride (Tocris Bioscience, Bristol, United Kingdom, cat. 1254). The 624824-186-R-J2-PDC line was cultured in 6C/Colon 1B media, which includes all 6A media components plus 50 ng/mL human EGF recombinant protein (Thermo Fisher Scientific, cat. PHG0311). […]

[1] = compound alone, run of 06/12/2023
[2] = compound alone, run of 06/13/2023
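Note: spheroids exposed to compounds for seven days before readout.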

Structure (SMILES)	IC50 (curve of compound)	viability, T/C (compound 0.0316 µM)	viability, T/C (compound 0.1 µM)	viability, T/C (compound 0.316 µM)	viability, T/C (compound 1 µM)	viability, T/C (compound 3.16 µM)	viability, T/C (compound 10 µM)	viability, T/C (compound 0.00316 µM)	viability, T/C (compound 0.01 µM)	also measured
C=CC(=O)N1CCN(c2nc(=O)n(-c3c(C)ccnc3C(C)C)c3nc(-c4c(O)cccc4F)c(F)cc23)C(C)C1 (stereo not drawn)	> 10 µM	105% [middle of 4 runs]	91.2% and 100% (2×) and 96.7%	109% [middle of 4 runs]	109% [middle of 4 runs]	126% [middle of 4 runs]	122% [middle of 4 runs]	–	–	–
CC(C)NCC(C(=O)N1CCN(c2ncnc3c2C(C)CC3O)CC1)c1ccc(Cl)cc1 (stereo not drawn)	336 nM [middle of 4 runs]	88.5% [middle of 4 runs]	77% [middle of 4 runs]	51.8% [middle of 4 runs]	25.5% [middle of 4 runs]	13.7% [middle of 4 runs]	9.08% [middle of 4 runs]	–	–	–
CC(C)n1nc(-c2ccc3oc(N)nc3c2)c2c(N)ncnc21	28.8 nM [middle of 4 runs]	50.7% [middle of 4 runs]	14.7% [middle of 4 runs]	–	–	–	–	87.5% [middle of 4 runs]	68% [middle of 4 runs]	viability, T/C (compound 0.000316 µM): 91.5% [middle of 4 runs]; viability, T/C (compound 0.001 µM): 85% [middle of 4 runs]
CC(Cn1ccc(-c2ccc(C#N)c(Cl)c2)n1)NC(=O)c1cc(C(C)O)[nH]n1 (stereo not drawn)	> 10 µM	101% [middle of 4 runs]	103% [middle of 4 runs]	105% [middle of 4 runs]	100% [middle of 4 runs]	107% [middle of 4 runs]	96.3% [middle of 4 runs]	–	–	–
CC(Nc1ccc2c(c1)OCCn1cc(N3C(=O)OCC3C(F)F)nc1-2)C(N)=O (stereo not drawn)	–	61% [middle of 8 runs]	44.3% [middle of 8 runs]	32.9% [middle of 8 runs]	28.2% [middle of 8 runs]	–	–	91.6% [middle of 8 runs]	81.8% [middle of 8 runs]	IC50 [1]: 71.5 nM [middle of 8 runs]
CC(Nc1ncnc2nc[nH]c12)c1cc2cccc(Cl)c2c(=O)n1-c1ccccc1 (stereo not drawn)	–	106% [middle of 8 runs]	99.4% [middle of 8 runs]	94.3% [middle of 8 runs]	86.6% [middle of 8 runs]	70.8% [middle of 8 runs]	54.7% [middle of 8 runs]	–	–	IC50 [2]: > 10 µM and 9.01 µM
CC1(C)CCC(Nc2ncc(C(F)(F)F)c(-c3c[nH]c4c(P(C)(C)=O)c(C#N)ccc34)n2)CN1 (stereo not drawn)	–	45.6% [middle of 4 runs]	42.6% [middle of 4 runs]	48% [middle of 4 runs]	44% [middle of 4 runs]	–	23.3% [middle of 4 runs]	–	–	–
CCCS(=O)(=O)Nc1ccc(F)c(C(=O)c2c[nH]c3ncc(-c4ccc(Cl)cc4)cc23)c1F	7.12 µM and 7.36 µM and 7.32 µM	103% [middle of 4 runs]	106% [middle of 4 runs]	104% (2×) and 114% and 126%	131% [middle of 4 runs]	–	27.6% [middle of 4 runs]	–	–	–
COc1c(OCCCN2CCOCC2)ccc2c3n(c(=NC(=O)c4cnc(N)nc4)nc12)CCN3	–	36.3% [middle of 8 runs]	22.1% [middle of 8 runs]	4.98% [middle of 8 runs]	1.19% [middle of 8 runs]	–	–	82.3% [middle of 8 runs]	58.9% [middle of 8 runs]	IC50 [2]: 15.9 nM [middle of 8 runs]
Cc1nc(NC(=O)N2CCCC2C(N)=O)sc1-c1ccnc(C(C)(C)C(F)(F)F)c1 (stereo not drawn)	–	91.9% [middle of 8 runs]	77% [middle of 8 runs]	57.5% [middle of 8 runs]	42.9% [middle of 8 runs]	30.8% [middle of 8 runs]	16.2% [middle of 8 runs]	–	–	IC50 [1]: 599 nM [middle of 8 runs]
Cn1cnc2c(F)c(Nc3ccc(Br)cc3Cl)c(C(=O)NOCCO)cc21	–	–	–	–	–	–	–	–	–	viability, T/C (compound 0.00949 µM): 77.2% [middle of 4 runs]; viability, T/C (compound 0.03 µM): 70.8% [middle of 4 runs]; viability, T/C (compound 0.0949 µM): 58.2% [middle of 4 runs]; viability, T/C (compound 0.3 µM): 48.6% [middle of 4 runs]; viability, T/C (compound 0.949 µM): 48.3% [middle of 4 runs]; viability, T/C (compound 3 µM): 40.8% [middle of 4 runs]
Cn1nccc1Nc1nccc(-c2ccn(C(CO)c3ccc(Cl)c(F)c3)c(=O)c2)n1 (stereo not drawn)	> 10 µM	93.2% [middle of 4 runs]	78.7% [middle of 4 runs]	73.9% [middle of 4 runs]	61.8% [middle of 4 runs]	61.6% [middle of 4 runs]	58.1% [middle of 4 runs]	–	–	–
Cn1ncnc1[C@H]1c2n[nH]c(=O)c3cc(F)cc(c23)N[C@@H]1c1ccc(F)cc1	> 0.1 µM	116% [middle of 4 runs]	102% [middle of 4 runs]	–	–	–	–	96.6% [middle of 4 runs]	98.5% [middle of 4 runs]	viability, T/C (compound 0.000316 µM): 98.9% [middle of 4 runs]; viability, T/C (compound 0.001 µM): 99.5% [middle of 4 runs]

More lines, main results first:

IC50 (curve of compound)	Structure (SMILES)	viability, T/C (compound 0.0316 µM)	viability, T/C (compound 0.1 µM)	viability, T/C (compound 0.316 µM)	viability, T/C (compound 1 µM)	viability, T/C (compound 3.16 µM)	viability, T/C (compound 10 µM)	viability, T/C (compound 0.00316 µM)	viability, T/C (compound 0.01 µM)	also measured
> 0.1 µM	CC(=O)c1c(C)c2cnc(Nc3ccc(N4CCNCC4)cn3)nc2n(C2CCCC2)c1=O	82.2% [middle of 4 runs]	62.8% [middle of 4 runs]	–	–	–	–	99.1% [middle of 4 runs]	91.3% [middle of 4 runs]	viability, T/C (compound 0.000316 µM): 94.7% [middle of 4 runs]; viability, T/C (compound 0.001 µM): 92.8% [middle of 4 runs]
8.5 µM [middle of 4 runs]	CC1(C)CCC(CN2CCN(c3ccc(C(=O)NS(=O)(=O)c4ccc(NCC5CCOCC5)c([N+](=O)[O-])c4)c(Oc4cnc5[nH]ccc5c4)c3)CC2)=C(c2ccc(Cl)cc2)C1	98.4% [middle of 4 runs]	95.7% [middle of 4 runs]	–	102% [middle of 4 runs]	98.8% [middle of 4 runs]	42.4% [middle of 4 runs]	–	–	–
> 1 µM	CCN1CCN(Cc2ccc(Nc3ncc(F)c(-c4cc(F)c5nc(C)n(C(C)C)c5c4)n3)nc2)CC1	74.3% [middle of 4 runs]	64.8% [middle of 4 runs]	68.5% [middle of 4 runs]	–	–	–	94% [middle of 4 runs]	88.4% [middle of 4 runs]	–
> 10 µM	CNC(=O)c1ccc(N2C(=S)N(c3ccc(C#N)c(C(F)(F)F)c3)C(=O)C2(C)C)cc1F	109% [middle of 4 runs]	95.3% [middle of 4 runs]	97% [middle of 4 runs]	93.3% [middle of 4 runs]	108% [middle of 4 runs]	95.8% [middle of 4 runs]	–	–	–
